Laboratory results taken from patent publication US9150592B2, “Heterocyclic nuclear hormone receptor modulators” (AbbVie Inc., priority 2012, dated 2015).

Columns and labels:
[1] = biological target: T1, Glucocorticoid Receptor (GR) (Homo sapiens, UniProt P04150); test: GR Fluorescence Polarization Assay (PolarScreen Glucocorticoid Receptor Competitor Assay, Red); conditions: IC50 class ranges, read-out: GR binding
T1 construct: purchased Invitrogen P2893
T1 sequence (P04150 1-777): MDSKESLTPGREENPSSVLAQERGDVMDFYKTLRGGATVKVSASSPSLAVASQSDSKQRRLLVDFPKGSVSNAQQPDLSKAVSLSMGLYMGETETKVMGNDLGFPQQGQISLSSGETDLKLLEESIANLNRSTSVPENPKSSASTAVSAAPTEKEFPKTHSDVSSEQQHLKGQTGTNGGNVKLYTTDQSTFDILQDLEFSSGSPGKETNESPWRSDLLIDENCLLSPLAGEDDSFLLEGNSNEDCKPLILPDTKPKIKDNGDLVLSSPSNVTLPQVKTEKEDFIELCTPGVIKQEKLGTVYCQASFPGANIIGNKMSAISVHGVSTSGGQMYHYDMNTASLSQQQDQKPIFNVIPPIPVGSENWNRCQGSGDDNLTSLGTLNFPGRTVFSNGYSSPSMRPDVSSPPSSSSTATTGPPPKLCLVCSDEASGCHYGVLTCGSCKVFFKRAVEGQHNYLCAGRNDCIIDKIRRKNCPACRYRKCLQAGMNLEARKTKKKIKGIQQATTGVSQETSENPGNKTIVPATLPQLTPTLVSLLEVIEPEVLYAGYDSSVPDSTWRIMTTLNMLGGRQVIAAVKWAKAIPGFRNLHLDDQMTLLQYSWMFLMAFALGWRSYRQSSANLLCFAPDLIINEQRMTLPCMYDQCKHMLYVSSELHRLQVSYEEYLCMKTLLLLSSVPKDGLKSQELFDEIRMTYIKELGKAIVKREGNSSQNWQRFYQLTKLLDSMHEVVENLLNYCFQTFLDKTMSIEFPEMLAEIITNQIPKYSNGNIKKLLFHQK
How it was run: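 Competitive fluorescence-polarization assay using a red fluorescent glucocorticoid tracer with human GR in kit buffer. Compounds serially diluted 1:4 in DMSO, incubated with tracer and GR overnight at 4° C, then polarization read.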

[2] = system: IL-6 in A549 cells stimulated with IL-1β; test: A549 Cell Assay to Measure Inflammation Markers (inhibition of IL-1β-induced IL-6); assay type: cell-based; conditions: intrinsic activity, Emax class ranges; for Emax: Homo sapiens
Procedure: A549 Cell Assay to Measure Inflammation Markers
Further dilution (1:250) of compound was made into assay medium and 50 μL/well diluted drug or DMSO/media control was applied to cells. After a 1 h pre-incubation in a temperature, CO2, and humidity controlled incubator, set to 37° C., 50 μL/well of 4 ng/mL IL-1β diluted in assay media, was applied to cultures. Assay plates, with a final volume of 200 μL/well and final concentrations of 0.1% DMSO and 1 ng/mL IL-1β were returned to incubator for a […] incubation period. Next, plates were spun at 183 g (1000 rpm in Beckman/Coulter Allegra 6KR centrifuge) for 10 min. Cell-free supernatant (150 μL/well) was collected and IL-6 was measured by MSD kit, following protocol of manufacturer, and using MSD SECTOR Imager 6000 instrument. […] Results were represented as IC50 and Emax values.

[3] = A549, A549 Cell Assay to Measure Inflammation Markers
[4] = A549 Cell Assay to Measure Inflammation Markers

| Structure (SMILES) | IC50 [1] [µM] | Emax [2, 3] [%] | Emax [2, 4] [%] | A549 Emax [2, 4] |
| --- | --- | --- | --- | --- |
| Cc1cc(Cl)ccc1[C@H]1SC(C)(C)CNc2c1c(C)nn2C (single isomer, unassigned) [M.6] | < 0.1 | < 50 |  |  |
| Cn1nc(-c2ccccn2)c2c1NC(=O)CSC2c1ccc(Br)cc1Cl (stereo not shown) [C.2, 4-(4-bromo-2-chloro-phenyl)-1-methyl-3-(2-pyridyl)-4,8-dihydropyrazolo[3,4-e][1,4]thiazepin-7-one] | 0.1 to 1 |  | < 50 |  |
| Cn1nc(C2CCCC2)c2c1NCCSC2c1ccc(Cl)cc1Cl (stereo not shown) [D.77] | < 0.1 | < 50 |  |  |
| Cc1cc(Br)ccc1[C@H]1SC[C@H](CC#N)Nc2c1c(-c1ccccn1)nn2C (racemic) | < 0.1 | > 50 |  |  |
| Cc1cc(Cl)ccc1[C@@H]1S[C@@H](CCO)CNc2c1c(C)nn2C (single isomer, unassigned) [M.16, 2-[4-(4-chloro-2-methyl-phenyl)-1,3-dimethyl-4,6,7,8-tetrahydro-1H-pyrazolo[3,4-e][1,4]thiazepin-6-yl]-ethanol] | 1 to 10 | < 50 |  |  |
| Cc1cc(C(=O)Nc2cccnc2C)ccc1[C@@H]1SC[C@H](C)Nc2c1c(-c1ccncn1)nn2C (single isomer, unassigned) [M.58, 4-(1,7-dimethyl-3-(pyrimidin-4-yl)-4,6,7,8-tetrahydro-1H-pyrazolo[3,4-e][1,4]thiazepin-4-yl)-3-methyl-N-(2-methylpyridin-3-yl)benzamide] | < 0.1 | > 70 |  |  |
| Cc1cc(C(=O)Nc2cccnc2)ccc1C1SC(C)(C)CNc2c1c(C)nn2C (stereo not shown) [H.1, 3-methyl-N-(3-pyridyl)-4-(1,3,6,6-tetramethyl-7,8-dihydro-4H-pyrazolo[3,4-e][1,4]thiazepin-4-yl)benzamide] | 1 to 10 | < 50 |  |  |
| Cn1nc(-c2nccs2)c2c1NCC(C)(C)SC2c1ccc(Cl)cc1Cl (stereo not shown) [D.17] | 0.1 to 1 | < 50 |  |  |
| CCn1nc(-c2ccccn2)c2c1N[C@@H](C)CS[C@H]2c1ccc(CCC(C)(C)O)cc1C (single isomer, unassigned) [M.39, 4-(4-(1-ethyl-7-methyl-3-(pyridin-2-yl)-4,6,7,8-tetrahydro-1H-pyrazolo[3,4-e][1,4]thiazepin-4-yl)-3-methylphenyl)-2-methylbutan-2-ol] | < 0.1 | > 70 |  |  |
| CCn1nc(-c2ccccn2)c2c1N[C@H](C)CS[C@H]2c1ccc(C#CC(C)(C)O)cc1C (single isomer, unassigned) [M.31, 4-(4-(1-ethyl-7-methyl-3-(pyridin-2-yl)-4,6,7,8-tetrahydro-1H-pyrazolo[3,4-e][1,4]thiazepin-4-yl)-3-methylphenyl)-2-methylbut-3-yn-2-ol] | < 0.1 | > 70 |  |  |
| Cc1ccccc1C1SCCNc2c1c(-c1ccccn1)nn2C (stereo not shown) [D.14] | < 0.1 | < 50 |  |  |
| CCn1nc(-c2ccccn2)c2c1NCCSC2c1ccc(C(=O)Nc2cccnc2C)cc1C (single isomer, unassigned) [M.62, 4-(1-ethyl-3-(pyridin-2-yl)-4,6,7,8-tetrahydro-1H-pyrazolo[3,4-e][1,4]thiazepin-4-yl)-3-methyl-N-(2-methylpyridin-3-yl)benzamide] | < 0.1 | > 70 |  |  |
| Cc1nn(C)c2c1C(c1ccc3[nH]ncc3c1)SCCN2 (stereo not shown) [D.76] | > 10 | < 50 |  |  |
| COC(=O)c1cc(C2SCCNc3c2c(-c2ccccn2)nn3C)c(C)s1 (stereo not shown) [E.5] | 1 to 10 | < 50 |  |  |
| Cc1n[nH]c2c1C(c1ccc(Cl)cc1Cl)SC(C)(C)CN2 (stereo not shown) [D.63] | 1 to 10 | < 50 |  |  |
| CCn1nc(-c2ccccn2)c2c1NCCSC2c1ccc(C(=O)Nc2cccnc2C)cc1C(F)(F)F (single isomer, unassigned) [M.68, 4-(1-ethyl-3-(pyridin-2-yl)-4,6,7,8-tetrahydro-1H-pyrazolo[3,4-e][1,4]thiazepin-4-yl)-N-(2-methylpyridin-3-yl)-3-(trifluoromethyl)benzamide] | 1 to 10 | > 70 |  |  |
| COc1cc(Cl)ccc1C1SC(C)(C)CNc2c1c(C1CC1)nn2C (stereo not shown) [D.47] | 0.1 to 1 | < 50 |  |  |
| Cc1cc(Cl)ccc1C1SCCNc2c1c(C)nn2C (stereo not shown) [D.59] | 0.1 to 1 | < 50 |  |  |

| Structure (SMILES) | IC50 [1] [µM] | Emax [2, 3] [%] | Emax [2, 4] [%] | A549 Emax [2, 4] |
| --- | --- | --- | --- | --- |
| Cc1cc(OCc2cccnc2)ccc1C1SCCNc2c1c(-c1ccccn1)nn2C (stereo not shown) | 0.1 to 1 | < 50 |  |  |
| Cc1cc(C(=O)Nc2cccnc2C)sc1C1SCCNc2c1c(-c1ccccn1)nn2C (stereo not shown) [F.4] | > 10 | < 50 |  |  |
| Cn1nc(C2CC2)c2c1NCC(C)(C)SC2c1ccc(Cl)cc1F (single isomer, unassigned) [M.3, 4-(4-chloro-2-fluorophenyl)-3-cyclopropyl-1,6,6-trimethyl-4,6,7,8-tetrahydro-1H-pyrazolo[3,4-e][1,4]thiazepine] | 1 to 10 | < 50 |  |  |
| Cc1ncccc1NC(=O)c1ccc(C2SC(C)(C)CNc3c2c(C)nn3C)c(Cl)c1 (single isomer, unassigned) [M.9, 3-chloro-N-(2-methylpyridin-3-yl)-4-(1,3,6,6-tetramethyl-4,6,7,8-tetrahydro-1H-pyrazolo[3,4-e][1,4]thiazepin-4-yl)benzamide] | 0.1 to 1 |  |  | D (a compound with Emax<50%) |
| CCn1nc(-c2ccccn2)c2c1N[C@H](C)CS[C@H]2c1ccc(C(N)=O)cc1C (single isomer, unassigned) [M.46, 4-(1-ethyl-7-methyl-3-(pyridin-2-yl)-4,6,7,8-tetrahydro-1H-pyrazolo[3,4-e][1,4]thiazepin-4-yl)-3-methylbenzamide] | < 0.1 | > 50 |  |  |
| Cn1nc(-c2ccccn2)c2c1NCC[S+]([O-])C2c1ccc(Cl)cc1Cl (stereo not shown) [L.2] | 1 to 10 | < 50 |  |  |
| CN(C)c1ccc(-c2nn(C)c3c2C(c2ccc(Cl)cc2Cl)SCCN3)cc1 (stereo not shown) [D.31] | 1 to 10 | < 50 |  |  |
| Cn1nc(C2CC2)c2c1NCC(C)(C)SC2c1ccc(Cl)cc1F (single isomer, unassigned) [M.4, 4-(4-chloro-2-fluorophenyl)-3-cyclopropyl-1,6,6-trimethyl-4,6,7,8-tetrahydro-1H-pyrazolo[3,4-e][1,4]thiazepine] | < 0.1 |  |  | D (a compound with Emax<50%) |
| Cc1cc(OCC(N)=O)ccc1[C@@H]1SC[C@@H](C)Nc2c1c(-c1ccccn1)nn2C (single isomer, unassigned) [M.24, 2-(4-(1,7-dimethyl-3-(pyridin-2-yl)-4,6,7,8-tetrahydro-1H-pyrazolo[3,4-e][1,4]thiazepin-4-yl)-3-methylphenoxy)acetamide] | < 0.1 | > 70 |  |  |
| Cc1cc(C(=O)Nc2cccnc2C)ccc1C1SCC(CO)Nc2c1c(-c1ccccn1)nn2C (single isomer, unassigned) | < 0.1 | > 70 |  |  |
| Cc1cc(Cl)ccc1C1SCC(C)Nc2c1c(-c1ccccn1)nn2C (single isomer, unassigned) | 1 to 10 | < 50 |  |  |
| Cc1cc(Cl)ccc1C1SC(C)(C)CNc2c1c(C1CC1)nn2C (stereo not shown) [D.45] | < 0.1 | > 60 |  |  |
| Cc1cc(-c2nn(C)c3c2C(c2ccc(Cl)cc2C)SCCN3)no1 (stereo not shown) [D.43] | < 0.1 | < 50 |  |  |
| Cn1nc(-c2ccc(F)cc2)c2c1NCCSC2c1ccc(Cl)cc1Cl (stereo not shown) [D.94] | < 0.1 | < 50 |  |  |
| CCn1nc(-c2ccccn2)c2c1N[C@H](C)CS[C@H]2c1ccc(CCC(C)(C)O)cc1C (single isomer, unassigned) [M.40, 4-(4-(1-ethyl-7-methyl-3-(pyridin-2-yl)-4,6,7,8-tetrahydro-1H-pyrazolo[3,4-e][1,4]thiazepin-4-yl)-3-methylphenyl)-2-methylbutan-2-ol] | < 0.1 | > 70 |  |  |
| Cc1cc(Cl)ccc1C1SC(CCO)C(C)Nc2c1c(C)nn2C (single isomer, unassigned) | 0.1 to 1 | > 70 |  |  |
| Cc1cc(Cl)ccc1[C@@H]1S[C@H](CCO)CNc2c1c(C)nn2C (single isomer, unassigned) [M.17, 2-[4-(4-chloro-2-methyl-phenyl)-1,3-dimethyl-4,6,7,8-tetrahydro-1H-pyrazolo[3,4-e][1,4]thiazepin-6-yl]-ethanol] | 0.1 to 1 | < 50 |  |  |
